Measured values reported in ChEMBL document CHEMBL5108051, “Improving the Antimicrobial Performance of Amphiphilic Cationic Antimicrobial Peptides Using Glutamic Acid Full-Scan and Positive Charge Compensation Strategies” (J Med Chem, 2022).
The source made the active and inactive calls. The rule behind the calls is not given here. Bridge positions count the residues as written; N and C are the ends. Square brackets hold non-standard residues; d marks the D form. Peptide text beside a SMILES is read from it. * marks the point of attachment. X1 = CC[C@H](C)CCCCC(=O)*; Dab = NCC[C@H](N)C(=O)O

Columns and labels:
[1] = Acute toxicity in BALB/c mouse lung assessed as increase in inter-alveolar space at 20 to 80 mg/kg, ip administered as single dose measured for 7 days by H and E staining method; format: organism-based; conditions: in vivo, 168 h, dose 20-80 mg/kg, time 7 day
[2] = Acute toxicity in BALB/c mouse assessed as pathological changes in heart at 10 to 40 mg/kg, ip administered as single dose measured for 7 days by H and E staining method; format: organism-based; conditions: in vivo, 168 h, dose 10-40 mg/kg, time 7 day
Escherichia coli = assay: Antimicrobial activity against Escherichia coli ATCC 25922 assessed as reduction in survival rate in presence of 0.02 to 2000 microg/ml of trypsin measured after 6 hrs; format: functional, organism-based

| SMILES | Activity [1] | Activity [2] | Activity (Escherichia coli) |
| --- | --- | --- | --- |
| CC[C@H](C)[C@H](NC(=O)[C@@H]1CCCN1C(=O)[C@H](CC(C)C)NC(=O)[C@@H](N)Cc1ccccc1)C(=O)N[C@H](C(=O)N[C@@H](C)C(=O)N[C@@H](CCCCN)C(=O)N[C@@H](CC(C)C)C(=O)N[C@@H](CC(C)C)C(=O)N[C@@H](CO)C(=O)NCC(=O)N[C@@H](CC(C)C)C(=O)N[C@@H](CC(C)C)C(N)=O)C(C)C (H-FLPIVAKLLSGLL-NH2) | Toxic |  |  |
| CC[C@H](C)CCCCC(=O)N[C@@H](CCN)C(=O)N[C@H](C(=O)N[C@@H](CCN)C(=O)N[C@H]1CCNC(=O)[C@H]([C@@H](C)O)NC(=O)[C@H](CCN)NC(=O)[C@H](CCN)NC(=O)[C@H](CC(C)C)NC(=O)[C@@H](Cc2ccccc2)NC(=O)[C@H](CCN)NC1=O)[C@@H](C)O (X1-[Dab]T[Dab][Dab][Dab][dF]L[Dab][Dab]T; lactam 4-C) |  | Non-Toxic | Active |
